Results on 2 compounds are retold here after US20080096859A1, “Compositions and Methods for Treating Ophthalmic Diseases” (priority 2004, published 2008).

SMILES strings stand for the structures. Structures can show the parent of a compound that is named as a salt.

In turn, `c1ccc(CNC[C@@H]2CCN(CCc3c[nH]c4ccc(Cn5cncn5)cc34)C2)cc1` (as salt: oxalate) returned a melting point of 154 to 156 °C.
The value for `c1ccc(CCNC[C@@H]2CCN(CCc3c[nH]c4ccc(-n5cnnc5)cc34)C2)cc1` (as salt: oxalate) (hydrate or solvate) was 189 to 190 °C.
